The test system of test [1] is Jurkat E6-1 cells. Kind of test: In vitro Assay of Cytokine Release from T Cells (PHA-stimulated IL-2, ELISA). It is filed as cell-based. To be noted: Homo sapiens, PHA 20 µg/ml, 20 hours, IL-2 by ELISA, read-out: Jurkat IL2 IC50. On the procedure: In vitro Assay of Cytokine Release from T Cells
Jurkat E6-1 cells were obtained from American Type Culture Collection (ATCC) and maintained in complete medium with 10% fetal bovine serum (FBS) at 37°C/5%CO2. Cells were plated in 100 µL of Dubelcco's Modified Eagle Medium (DMEM) with 1% FBS in a 96 well plate at a density of 1x10^6 cells/well and 50 µL of test compound was added. Cells were then stimulated by the addition of 50 µL of phytohemagglutinin (PHA) (final concentration 20 µg/ml) and incubated at 37°C/5%CO2 for 20 hours. On the following day, the supernatants were collected and assayed for IL-2 levels by ELISA according to the manufacturer's protocols. The IC50 value was calculated as the concentration at which 50% of secreted IL-2 in vehicle is inhibited.
For orientation: ELISA stands for enzyme-linked immunosorbent assay.

The test system of test [2] is Jurkat E6-1 cells. Kind of test: Fluorescent Calcium Flux Assay (thapsigargin store depletion, FLIPR Calcium 5 dye). As to conditions: Homo sapiens, Thapsigargin 10µM, 2mM final calcium concentration, read-out: Ca^2+ flux IC50. It is filed as cell-based. The procedure:
Fluorescent Calcium Flux Assay
Jurkat E6-1 cells were obtained from ATCC (number TIB-152™) and maintained as ATCC recommend; in medium RPMI-1640 with 10% FBS at 37°C and 5% CO2.
Before the assay, Jurkat cells were grown at a density of 2 millions cells/ml in cell culture media (RPMI with 10% FBS) in a T-175 flask at 37°C and 5% CO2.
The day of the assay, cells were harvested by centrifugation (5 minutes at 1500 rpm) and the pellet were suspended in Ca^2+ free assay buffer (HBSS w/o Ca^2+ and Mg ^2+, 20mM Hepes and 1 mM MgCl2, pH 7.4) at a density of 5 million cells/ml.
Calcium depletion was initiated by the addition to the cell suspension of Thapsigarguin at a final assay concentration of 10µM. 20µl of the cellular suspension containing Thapsigargin (100.000 cells/well) were plated into 384 well plates (corning 3711) and incubated at RT for 15 minutes.
Test compounds were diluted in DMSO 100% to get a 10^-2M stock solution and serial dilutions 1/3 were performed in the same solvent. Then, 20µl of test compounds, diluted 75 times in Ca^2+ free assay buffer, were added to the cells and incubated at RT for 1h.
Once this incubation was completed, 5 µl of dye solution (FLIPR Calcium 5 Express Kit, Molecular Devices), prepared as Molecular Devices recommend, were added into the assay plates followed by an extra incubation period of 1 hour at room temperature. After the second incubation period, assay plates were placed into the FLIPR Tetra from Molecular Devices. Fluorescence was measured at a wavelength of 525nm after the dye excitation at 485nm. The initial baseline was measured during 20 seconds, and then 8µl of a 13mM Calcium solution in assay buffer were added (2mM final calcium concentration) except for basal wells, where assay buffer without calcium was added. At this time, changes in the cellular fluorescent were measured for an extra 80 seconds.
Peak and base line were taken for the calculation of the ratio (Peak/Base Line). Total, basal and compound well ratio values were used to calculate %Inhibition.
In general terms: Calcium flux is commonly read through the fluorescence of an indicator in the cells.

Broadly, the IC50 is the midpoint of a concentration-inhibition curve.

`Cn1nc(C(F)(F)F)cc1NC(=O)c1cc(-c2c(F)cccc2Cl)[nH]n1` [Example 1, 5-(2-chloro-6-fluorophenyl)-N-[1-methyl-3-(trifluoromethyl)-1H-pyrazol-5-yl]-1H-pyrazole-3-carboxamide]: the results for the IC50 in test [1] and in test [2] were 130 nM and 332 nM, respectively.

For `COc1ccc(OC)c(NC(=O)c2cc(-c3c(F)cccc3Cl)[nH]n2)c1` [Example 5, 5-(2-chloro-6-fluorophenyl)-N-(2,5-dimethoxyphenyl)-1H-pyrazole-3-carboxamide], the concentration for half-maximal inhibition (IC50) in test [1] stood at 62 nM; in test [2] it was 135 nM.

With `Cn1nc(-c2ccccc2)cc1NC(=O)c1cc(-c2c(F)cccc2Cl)[nH]n1` [Example 6, 5-(2-chloro-6-fluorophenyl)-N-(1-methyl-3-phenyl-1H-pyrazol-5-yl)-1H-pyrazole-3-carboxamide], the IC50 in test [1] is 410 nM; in test [2], 559 nM.

(Values after EP2848615A1, “New pyrazole derivatives as CRAC channel modulators” (Almirall, S.A., priority 2013, dated 2015).)
